Source: patent US7432107B2, “Cardiac hormones for assessing cardiovascular risk” (Roche Diagnostics Operations, Inc., priority 2005, dated 2008)

Tests used:
[1] = cited from earlier work
[2] = design: species or system patients; details: human, in vivo, 24 weeks
Experimental: NT-proBNP was measured in baseline serum samples from 433 patients entering a prospective study, designed primarily to define the therapeutic effect of a novel metallo-proteinase inhibitor in osteoarthritis (OA). Cardiovascular adverse events (CV-AEs) were monitored and related to the concomitant use of cox-2 inhibitors or NSAIDs or prostaglandin metabolism influencing steroids. In a retrospective analysis the question was evaluated whether CV AEs in patients receiving anti-inflammatory drugs could have been predicted from elevated NT-proBNP values. […]
Permitted rescue anti-inflammatory drugs including cox-2 inhibitors and NSAIDs or steroids for this trial were aspirin, diclofenac sodium, diflunisal, etodolac, fenoprofen, ibuprofen, ketoprofen, naproxen, nabumetone, oxaprozin, piroxicam, sodium salicylate, choline magnesium salicylate, celecoxib, rofecoxib or tolmetin. […] Patients were not enquired actively for the occurrence of angina pectoris, signs or symptoms of congestive heart failure, or arterial hypertension, nor was the ECG routinely evaluated for the occurrence of new Q-waves or new bundle branch block. […]

[3] = cited from earlier work; remark: listed apart in the source
[4] = 48 hours at room temperature or at 4° Celsius; cited from earlier work

CS(=O)(=O)c1ccc(C2=C(c3ccccc3)C(=O)OC2)cc1 [Rofecoxib]
additional cardiovascular incidents (myocardial infarction, stroke) ([1]; 25 mg compared with placebo, after 18 months of follow-up): 16 per 1,000 treated patients
blood pressure levels ([1]; 25 mg versus placebo, early post-observation phase): higher blood pressure levels
rise in the rate of serious thromboembolic incidents ([1]; APPROVE study): 3.9 times

CC(=O)Nc1ccc(O)cc1 [acetaminophen]
Hazard Ratio of covariate (takes drug at baseline), time to CV adverse events [2]: 0.653

BNP: active natriuretic hormone of 32 amino acids, cleaved from proBNP
in-vivo half-life ([3]; in vivo): 0.333 h
concentration loss on storage [4]: at least 20%

B1: NT-proBNP: N-terminal pro peptide of 76 amino acids, cleaved from proBNP; inactive counterpart of BNP (protein, UniProt P16860 27-102, looked up)
NT-proBNP: HPLGSPGSASDLETSGLQEQRNHLQGKLSELQVEQTSLEPLQESPRPTGVWKSREVATEGIRGHRKMVLYTLRAPR
modifications: NT-proBNP
in-vivo half-life, longer than that of BNP ([3]; difference to BNP): 2 h
